Numbers after ± are expanded uncertainties.

A word on the mass density: it is mass per unit of volume.

For the first series the following is noted: 293.15 K; 101.33 kPa; Liquid; Pycnometric method.
Regarding `Clc1ccccc1` [chlorobenzene], the mass density is 1106 ± 6.3 kg/m3.

With `CN(C)C=O` [dimethylformamide], the mass density worked out at 948.7 ± 5.9 kg/m3.

The series is the same for the next values; noted with them: 298.15 K; 101.33 kPa; Liquid; Pycnometric method.
In the case of `Nc1ccccc1` [aniline], the mass density was 1017.3 ± 6.1 kg/m3.

For `CC#N` [acetonitrile], the mass density is 776.5 ± 1.2 kg/m3.

In the case of `Cc1ccccc1C` [1,2-dimethylbenzene], the mass density is listed as 875.9 ± 5.8 kg/m3.

For the compound `O=[N+]([O-])c1ccccc1` [nitrobenzene], the mass density is 1198 ± 6.5 kg/m3.

With `CCCCCCO` [hexan-1-ol], the mass density was 815.3 ± 1.2 kg/m3.

As for `C=CC#N` [acrylonitrile], the mass density turned out to be 800.3 ± 5.7 kg/m3.

Source of the values: the NIST ThermoML archive (doi:10.1016/j.fluid.2010.08.010).
